Tests used:
Format in all cases: cell-based
[1] = system: nitric oxide (NO) production in LPS + IFN-γ activated RAW 264.7 macrophages; assay: Inhibition of NO production (Griess assay) in LPS + IFN-γ activated RAW 264.7 macrophages; details: for IC50: Mus musculus, RAW264.7, 24 hrs, N = 6, mean ± SD; for Anti-inflammatory activity (in words): verbal judgement of Table 3 data
Procedure: (§1) All compounds were assessed for their anti-inflammatory activity by evaluating the inhibition of NO production and TNF-α in LPS plus interferon (IFN)-γ activated RAW 264.7 macrophages. All compounds were also evaluated for their cytotoxicity using the Alamar blue assay (Table 3).
(§2) Cells were grown in 75 cm^2 flasks on Dulbecco’s Modified Eagle Medium (DMEM) containing 10% fetal bovine serum (FBS) that was supplemented with penicillin (100 U/mL), streptomycin (100 μg/mL) and L-glutamine (2 mM). The cell line was maintained in 5% CO2 at 37 °C, with media being replaced every 3–4 days. Once cells had grown to confluence in the culture flask, they were harvested using a rubber policeman, as opposed to using trypsin, which can remove membrane-bound receptors.
(§3) RAW 264.7 cells (1 × 10^6 cells/mL) were seeded in 96 well plates (Corning® Costar®, Sigma, Sydney, Australia) overnight until confluency. When the cells were confluent, each compound was serially diluted from a starting concentration of 100 μg mL^−1 to construct a dose response curve (i.e., 100, 50, 25, 12.5, 6.25, and 3.13 μg mL^−1) and co-incubated with cells for 1 hr prior to the addition of 1 μg mL^−1 LPS and 10 U mL^−1 (1 unit = 0.1 ng/mL) IFN-γ. After activation, the cells were incubated for another 24 hrs at 37 °C. The supernatant was then collected for NO, and TNF-α assays. The cells were subjected to cell viability measurement using the Alamar Blue assay. Non-activated cells (exposed to media only) were used as negative control and activated cells were positive control.
Nitric oxide was determined by the Griess reagent as described in previous studies. Griess reagent was freshly made up of equal volumes of 1% sulfanilamide in 5% phosphoric acid and 0.1% N-1-naphthylethylenediamine dihydrochloride in Milli-Q water. From each well, 50 µL of supernatant was transferred to a fresh 96-well plate and mixed with 50 µL of Griess reagent. The production of nitrite as an indicator of NO was measured at 540 nm in a POLARstar Omega microplate reader (BMG Labtech, Mornington, Australia).
(§4) Data analysis was carried using GraphPad Prism 9.3.1. Calculations were performed using MS-Excel version 16.61.1. IC50 values were obtained by using the sigmoidal dose–response function in GraphPad Prism. The results were expressed as mean ± standard deviation (SD).

RAW 264.7 macrophages = assay: Cell viability / cytotoxicity by the Alamar Blue assay; details: Mus musculus, RAW264.7, 24 h, LPS + IFN-γ activated RAW 264.7 macrophages, N = 6, mean ± SD
Procedure: as §1, §2, §3
After various treatments and the stimulation by LPS and IFN-γ overnight, 100 µL of Alamar Blue solution [10% Alamar Blue (resazurin) in DMEM media] was added to cells and incubated at 37 °C for 2 hrs. The fluorescence intensity was measured with excitation at 530 nm and emission at 590 nm using a microplate reader. The results were expressed as a percentage of the intensity to that of control cells (non-activated cells).
as §4

[2] = system: TNF-α production in LPS + IFN-γ activated RAW 264.7 macrophages; assay: Inhibition of TNF-α production (ELISA) in LPS + IFN-γ activated RAW 264.7 macrophages; details: Mus musculus, RAW264.7, 24 hrs, N = 6, mean ± SD
Procedure: as §1, §2, §3
The stored supernatants were analyzed for TNF-α synthesis using a commercial ELISA kit (Peprotech, Brisbane, Australia) according to the manufacturer’s instructions. The absorbance was measured at 410 nm. The concentrations of TNF-α in the experimental samples were extrapolated from a standard curve.
as §4

Row | Compound | IC50 [1] [µg/mL] | CC50 (RAW 264.7 macrophages) [µg/mL] | IC50 [2] [µg/mL] | Anti-inflammatory activity (in words) [1]
1 | COc1c(C)c(O)cc2c1C[C@@H]1OCc3c(cc4c(c3O)OCO4)[C@H]1O2 [Compound 1, Myrtinol A] | 11.5 ± 0.14 | 18.8 ± 0.39 | 24.5 ± 0.28 | 
2 | COc1cc2c(c(O)c1OC)CO[C@H]1Cc3c(cc(O)c(C)c3OC)O[C@H]21 [Compound 2, Myrtinol B] | 16.2 ± 0.77 | 37.2 ± 2.09 | 52.4 ± 7.47 | 
3 | COc1cc2c(c(O)c1C)[C@@H](O)[C@@H]1OCc3c(cc(OC)c(OC)c3O)[C@H]1O2 [Compound 3, Myrtinol C] | > 100 | > 100 | > 100 | inactive
4 | COc1cc2c(c(O)c1C)C[C@@H]1OCc3c(cc(OC)c(OC)c3O)[C@H]1O2 [Compound 4, Myrtinol D] | 29.3 ± 10.9 | 71.5 ± 14.7 | 91.3 ± 7.14 | 
5 | COc1cc2c(c(OC)c1C)C[C@@H]1OCc3c(cc4c(c3O)OCO4)[C@H]1O2 [Compound 5, Myrtinol E] | 8.51 ± 0.47 | 15.5 ± 0.42 | 17.2 ± 0.22 | 
6 | COc1cc2c(c(OC)c1C)C[C@@H]1OCc3c(cc(OC)c(OC)c3O)[C@H]1O2 [Compound 6, Myrtinol F] | 12.6 ± 0.26 | 19.8 ± 0.86 | 30.6 ± 5.01 | 
7 | COc1ccc([C@@H]2Oc3c(O)cc(CCCO)cc3[C@H]2CO)cc1OC [Compound 7, 4-O-methylcedrusin] | 44.1 ± 13.4 | > 100 | > 100 | did not show good anti-inflammatory activity
8 | COc1cc([C@@H]2Oc3c(OC)cc(CCCO)cc3[C@H]2CO)ccc1O [Compound 8, 7-O-methylcedrusin] | > 100 | > 100 | > 100 | did not show good anti-inflammatory activity
9 | COc1cc2oc(-c3ccc(O)cc3)cc(=O)c2c(O)c1C [Compound 9, 8-demethylsideroxylin] | 8.3 ± 0.96 | 20.4 | 46.8 ± 5.87 | 
10 | COc1cc(/C=C/C(=O)CC(=O)/C=C/c2ccc(O)c(OC)c2)ccc1O [curcumin, reference compound] | 4.64 ± 1.5 | 10.9 ± 1.3 | 4.19 ± 2.6 | 

Reference: PMC10004088, “Myrtinols A–F: New Anti-Inflammatory Peltogynoid Flavonoid Derivatives from the Leaves of Australian Indigenous Plant Backhousia myrtifolia” (Molecules, 2023)
